Experiments:
[1] = Hepatocyte stability, mouse; assay type: in vitro ADME; conditions: male, CD-1, cryopreserved hepatocytes, over 2 h
Protocol: Human cryopreserved hepatocytes were supplied by BioIVT (lot QZW, 10 pooled donors, Westbury, NY, USA). Mouse cryopreserved hepatocytes were supplied by BioIVT (lot ZPG, pooled male CD-1). Vials of cryopreserved hepatocytes were removed from storage and thawed in a 37 °C water bath with gentle shaking, and then the contents were poured into a 50 mL thawing medium conical tube. Vials were centrifuged at 100× g for 10 min at room temperature. The thawing medium was aspirated, and hepatocytes were resuspended with a serum-free incubation medium to yield ~1.5 × 10^6 cells/mL. Cell viability and density were counted using AO/PI fluorescence staining, and then cells were diluted with a serum-free incubation medium to a working cell density of 0.5 × 10^6 viable cells/mL. Aliquots of 198 μL of hepatocytes were dispensed into each well of a 96-well noncoated plate. The plate was placed in an incubator for approximately 10 min. […] Peak areas were determined from extracted ion chromatograms, and the slope value, k, was determined by linear regression of the natural logarithm of the remaining percentage of the parent drug vs. incubation time curve. The intrinsic clearance (CLint in μL/min/10^6 cells) was calculated using the relationship CLint = kV/N, where V is the incubation volume (0.2 mL) and N is the number of hepatocytes per well (0.1 × 10^6 cells). […]

[2] = biological target: T1, PKMYT1 (Homo sapiens, UniProt Q99640); assay: NanoBRET K192; assay type: cell-based; conditions: HEK293
T1 construct: purchased Promega (NanoBRET Target Engagement K192 Kinase Selectivity System)
T1 sequence (Q99640 whole entry): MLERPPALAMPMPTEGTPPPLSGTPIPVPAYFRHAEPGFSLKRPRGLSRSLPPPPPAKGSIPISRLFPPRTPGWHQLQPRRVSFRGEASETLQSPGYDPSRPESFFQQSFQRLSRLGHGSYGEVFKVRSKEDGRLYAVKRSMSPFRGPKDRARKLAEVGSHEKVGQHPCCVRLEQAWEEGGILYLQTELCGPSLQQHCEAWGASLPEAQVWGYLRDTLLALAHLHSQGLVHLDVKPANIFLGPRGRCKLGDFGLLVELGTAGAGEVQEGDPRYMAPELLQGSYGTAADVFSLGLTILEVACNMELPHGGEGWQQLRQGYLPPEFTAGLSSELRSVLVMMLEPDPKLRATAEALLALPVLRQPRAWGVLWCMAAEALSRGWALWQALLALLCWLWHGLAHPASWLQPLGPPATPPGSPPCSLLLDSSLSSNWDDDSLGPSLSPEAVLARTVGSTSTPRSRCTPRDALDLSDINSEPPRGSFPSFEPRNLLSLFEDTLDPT
Protocol: (§1) The K192 selectivity assay was run according to the Draft Promega technical manual, NanoBRET^TM Target Engagement K192 Kinase Selectivity System. Reagents were supplied by Promega (Promega NP 4101). For the assay, DNA from the prepared kinase vector panel plates A and B were mixed with Fugene in 96-well plates (Corning 3917) and incubated at room temperature for 30 min. The NanoLuc® Low control vector pNL1.1.CMV [Nluc/CMV] Vector (Cat.# N1091) and the transfection control vector NanoLuc®-HIPK2 Fusion Vector (Cat.# NV3221) were used as controls.
(§2) HEK293 cells were grown to 75–95% confluency in DMEM (Gibco 11995-065) supplemented with FBS (Avantor 97068-085) at 37 °C in […]. On the first day of the assay, cells were harvested and resuspended in Opti-MEM (Gibco 11058-021) supplemented with 1% FBS (Avantor 97068-085) at 2.5 × 10^5 cells per mL. A volume of 60 μL of cell suspension was mixed with 10 μL of prepared DNA (10X concentration) and 30 μL of Fugene (30 μL/mL in Opti-MEM) as outlined by Promega and incubated overnight at 37 °C in a 5% CO2 incubator.
(§3) On day two of the assay, 5 μL of 20X K10 tracer was prepared and added at concentrations recommended by Promega. Then, 10 μL of test compounds at 100 μM in Opti-MEM (diluted from a 10 mM solution in DMSO) was added to the test wells while an equivalent volume of Opti-MEM was added to the high-control wells. Plates were kept at 37 °C in a 5% CO2 incubator for two hours. After two hours, plates were allowed to equilibrate to room temperature for 15 min. A solution of 3X Complete Substrate plus Inhibitor Solution was freshly prepared, consisting of a 1:166 dilution of NanoBRET™ Nano-Glo® Substrate plus a 1:500 dilution of Extracellular NanoLuc® Inhibitor in Opti-MEM® medium without serum or phenol red. A 50 μL volume of the 3X Complete Substrate plus Inhibitor Solution was added to each assay well, including control wells. After 2–3 min, the plate was shaken at 300 RPM for 10 s, and the donor emission wavelength (450 nm) and acceptor emission wavelength (610 nm) were measured using the Glomax® Discover System.
(§4) As a quality check, the donor signal-to-background ratio was calculated for each individual kinase by dividing the mean donor signal for each kinase by the mean donor signal for the signal-to-background control wells. Fractional occupancy of the test drug for each kinase was determined using the following formula:Occupancy (%) = [1 − (Sample − Bottom)/(Top − Bottom)] × 100 where

[3] = biological target: T2, WEE2 (Homo sapiens, UniProt P0C1S8); assay: NanoBRET K192; assay type: cell-based; conditions: HEK293
T2 construct: purchased Promega (NanoBRET Target Engagement K192 Kinase Selectivity System)
Protocol: as §1, §2, §3, §4

[4] = biological target: T3, MARK2 (Homo sapiens, UniProt Q7KZI7); assay: NanoBRET K192; assay type: cell-based; conditions: HEK293
T3 construct: purchased Promega (NanoBRET Target Engagement K192 Kinase Selectivity System)
Protocol: as §1, §2, §3, §4

[5] = biological target: T4, EPHA6 (Homo sapiens, UniProt Q9UF33); assay: NanoBRET K192; assay type: cell-based; conditions: HEK293
T4 construct: purchased Promega (NanoBRET Target Engagement K192 Kinase Selectivity System)
Protocol: as §1, §2, §3, §4

[6] = biological target: T5, HIPK4 (Homo sapiens, UniProt Q8NE63); assay: NanoBRET K192; assay type: cell-based; conditions: HEK293
T5 construct: purchased Promega (NanoBRET Target Engagement K192 Kinase Selectivity System)
Protocol: as §1, §2, §3, §4

[7] = biological target: T6, TLK2 (Homo sapiens, UniProt Q86UE8); assay: NanoBRET K192; assay type: cell-based; conditions: HEK293
T6 construct: purchased Promega (NanoBRET Target Engagement K192 Kinase Selectivity System)
T6 sequence (Q86UE8 whole entry): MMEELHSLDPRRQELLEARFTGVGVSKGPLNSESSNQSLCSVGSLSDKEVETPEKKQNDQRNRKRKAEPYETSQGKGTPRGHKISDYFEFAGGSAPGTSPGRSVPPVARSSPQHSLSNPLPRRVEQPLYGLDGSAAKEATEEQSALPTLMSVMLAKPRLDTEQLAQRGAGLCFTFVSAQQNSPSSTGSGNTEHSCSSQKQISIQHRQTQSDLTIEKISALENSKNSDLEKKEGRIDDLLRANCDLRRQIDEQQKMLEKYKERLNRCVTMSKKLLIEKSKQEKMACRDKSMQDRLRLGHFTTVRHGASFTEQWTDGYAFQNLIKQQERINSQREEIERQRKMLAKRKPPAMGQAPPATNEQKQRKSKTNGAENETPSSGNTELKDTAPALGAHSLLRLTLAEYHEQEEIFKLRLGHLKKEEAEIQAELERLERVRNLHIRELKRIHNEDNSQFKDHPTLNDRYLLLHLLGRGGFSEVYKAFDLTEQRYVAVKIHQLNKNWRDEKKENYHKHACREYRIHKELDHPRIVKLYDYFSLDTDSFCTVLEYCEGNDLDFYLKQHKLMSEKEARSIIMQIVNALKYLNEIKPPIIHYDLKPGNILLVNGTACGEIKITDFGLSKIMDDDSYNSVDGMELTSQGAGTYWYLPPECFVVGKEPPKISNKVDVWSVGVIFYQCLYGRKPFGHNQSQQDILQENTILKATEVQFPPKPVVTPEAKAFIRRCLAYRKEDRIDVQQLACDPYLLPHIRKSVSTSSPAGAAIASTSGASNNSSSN
Protocol: as §1, §2, §3, §4

[8] = biological target: T7, MAP3K10 (Homo sapiens, UniProt Q02779); assay: NanoBRET K192; assay type: cell-based; conditions: HEK293
T7 construct: host or cells: HEK293
T7 sequence (Q02779 whole entry): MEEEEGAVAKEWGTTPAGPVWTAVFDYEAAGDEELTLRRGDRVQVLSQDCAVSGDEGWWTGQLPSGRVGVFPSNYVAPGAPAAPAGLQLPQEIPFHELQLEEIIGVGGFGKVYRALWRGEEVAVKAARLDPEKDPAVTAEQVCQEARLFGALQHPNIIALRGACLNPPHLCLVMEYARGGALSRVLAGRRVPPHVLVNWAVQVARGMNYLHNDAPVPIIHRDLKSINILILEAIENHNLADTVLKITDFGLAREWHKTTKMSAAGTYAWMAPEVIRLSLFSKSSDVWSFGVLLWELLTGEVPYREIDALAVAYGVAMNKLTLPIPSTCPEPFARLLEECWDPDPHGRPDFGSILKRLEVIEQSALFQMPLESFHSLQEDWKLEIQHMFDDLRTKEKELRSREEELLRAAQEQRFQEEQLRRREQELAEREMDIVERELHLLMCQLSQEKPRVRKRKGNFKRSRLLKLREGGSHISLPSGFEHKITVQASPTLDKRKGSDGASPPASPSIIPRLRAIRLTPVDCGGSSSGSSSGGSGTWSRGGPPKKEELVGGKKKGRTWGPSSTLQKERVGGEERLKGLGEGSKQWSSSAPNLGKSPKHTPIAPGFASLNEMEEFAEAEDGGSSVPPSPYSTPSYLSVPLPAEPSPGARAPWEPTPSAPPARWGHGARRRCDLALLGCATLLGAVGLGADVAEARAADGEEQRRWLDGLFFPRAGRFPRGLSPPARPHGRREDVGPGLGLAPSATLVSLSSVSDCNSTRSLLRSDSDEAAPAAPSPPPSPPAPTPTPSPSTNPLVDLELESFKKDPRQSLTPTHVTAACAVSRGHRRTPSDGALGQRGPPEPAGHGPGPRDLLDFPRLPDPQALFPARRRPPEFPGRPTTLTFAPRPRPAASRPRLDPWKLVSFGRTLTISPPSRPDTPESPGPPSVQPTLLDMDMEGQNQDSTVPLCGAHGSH
Protocol: as §1, §2, §3, §4

[9] = biological target: T8, AURK A (Homo sapiens, UniProt O14965); assay: NanoBRET K192; assay type: cell-based; conditions: HEK293
T8 construct: host or cells: HEK293
Protocol: as §1, §2, §3, §4

[10] = biological target: T9, MUSK (Homo sapiens, UniProt O15146); assay: NanoBRET K192; assay type: cell-based; conditions: HEK293
T9 construct: purchased Promega (NanoBRET Target Engagement K192 Kinase Selectivity System)
T9 sequence (O15146 24-869): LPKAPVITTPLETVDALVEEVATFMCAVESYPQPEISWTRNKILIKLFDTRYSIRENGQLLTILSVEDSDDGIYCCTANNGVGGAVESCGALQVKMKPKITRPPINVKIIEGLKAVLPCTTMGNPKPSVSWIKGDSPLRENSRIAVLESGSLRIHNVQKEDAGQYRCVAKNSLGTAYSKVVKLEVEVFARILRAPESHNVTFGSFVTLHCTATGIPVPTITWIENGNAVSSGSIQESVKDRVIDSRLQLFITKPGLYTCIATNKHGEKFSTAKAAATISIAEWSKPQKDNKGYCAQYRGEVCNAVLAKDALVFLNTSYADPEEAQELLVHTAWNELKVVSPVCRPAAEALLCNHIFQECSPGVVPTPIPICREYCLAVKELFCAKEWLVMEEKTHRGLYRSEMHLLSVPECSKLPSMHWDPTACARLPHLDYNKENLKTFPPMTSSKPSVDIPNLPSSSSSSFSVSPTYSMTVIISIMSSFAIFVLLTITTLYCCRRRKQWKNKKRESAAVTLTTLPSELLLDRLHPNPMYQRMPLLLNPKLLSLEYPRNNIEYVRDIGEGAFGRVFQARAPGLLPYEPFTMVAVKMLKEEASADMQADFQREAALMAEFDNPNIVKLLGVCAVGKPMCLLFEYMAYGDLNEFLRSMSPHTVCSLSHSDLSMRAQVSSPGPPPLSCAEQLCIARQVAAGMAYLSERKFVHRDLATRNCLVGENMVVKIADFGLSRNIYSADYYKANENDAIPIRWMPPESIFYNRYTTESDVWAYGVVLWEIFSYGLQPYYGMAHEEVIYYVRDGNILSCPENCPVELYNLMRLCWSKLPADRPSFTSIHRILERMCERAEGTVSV
Protocol: as §1, §2, §3, §4

[11] = biological target: T10, AKT2 (Homo sapiens, UniProt P31751); assay: NanoBRET K192; assay type: cell-based; conditions: HEK293
T10 construct: purchased Promega (NanoBRET Target Engagement K192 Kinase Selectivity System)
T10 sequence (P31751 whole entry): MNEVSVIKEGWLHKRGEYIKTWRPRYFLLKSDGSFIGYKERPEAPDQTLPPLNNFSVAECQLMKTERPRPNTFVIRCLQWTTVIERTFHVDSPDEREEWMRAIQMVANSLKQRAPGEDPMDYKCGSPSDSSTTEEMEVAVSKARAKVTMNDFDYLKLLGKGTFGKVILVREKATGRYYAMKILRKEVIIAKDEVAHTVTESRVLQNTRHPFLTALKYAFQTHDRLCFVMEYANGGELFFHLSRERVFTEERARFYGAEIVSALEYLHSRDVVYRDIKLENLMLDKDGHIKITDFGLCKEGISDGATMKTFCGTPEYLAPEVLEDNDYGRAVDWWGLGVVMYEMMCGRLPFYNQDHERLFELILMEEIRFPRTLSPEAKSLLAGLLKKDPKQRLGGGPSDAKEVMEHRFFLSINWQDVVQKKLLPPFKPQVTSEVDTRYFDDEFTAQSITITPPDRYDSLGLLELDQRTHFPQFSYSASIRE
Protocol: as §1, §2, §3, §4

[12] = biological target: T11, MAP4K2 (Homo sapiens, UniProt Q12851); assay: NanoBRET K192; assay type: cell-based; conditions: HEK293
T11 construct: purchased Promega (NanoBRET Target Engagement K192 Kinase Selectivity System)
T11 sequence (Q12851 whole entry): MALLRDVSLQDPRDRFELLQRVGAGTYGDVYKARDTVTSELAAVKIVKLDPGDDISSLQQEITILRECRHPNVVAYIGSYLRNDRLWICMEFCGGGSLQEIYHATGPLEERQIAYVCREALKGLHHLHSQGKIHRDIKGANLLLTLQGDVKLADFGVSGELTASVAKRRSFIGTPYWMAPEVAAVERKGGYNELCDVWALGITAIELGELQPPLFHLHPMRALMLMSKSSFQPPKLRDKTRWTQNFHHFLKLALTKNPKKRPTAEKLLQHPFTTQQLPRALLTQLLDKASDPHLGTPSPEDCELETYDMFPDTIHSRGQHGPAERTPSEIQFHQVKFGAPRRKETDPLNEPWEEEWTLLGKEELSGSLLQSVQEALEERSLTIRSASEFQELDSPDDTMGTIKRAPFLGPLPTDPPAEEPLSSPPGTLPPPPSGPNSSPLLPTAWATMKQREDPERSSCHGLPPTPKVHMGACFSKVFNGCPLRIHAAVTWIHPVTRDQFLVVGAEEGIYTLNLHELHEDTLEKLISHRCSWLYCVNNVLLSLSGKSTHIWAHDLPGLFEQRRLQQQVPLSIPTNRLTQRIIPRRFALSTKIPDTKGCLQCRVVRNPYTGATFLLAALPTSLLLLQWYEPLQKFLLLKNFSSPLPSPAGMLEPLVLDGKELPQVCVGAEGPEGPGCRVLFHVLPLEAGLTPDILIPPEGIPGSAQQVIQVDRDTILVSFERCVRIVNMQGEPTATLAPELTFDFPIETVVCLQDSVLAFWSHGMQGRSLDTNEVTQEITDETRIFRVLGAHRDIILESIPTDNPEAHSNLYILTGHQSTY
Protocol: as §1, §2, §3, §4

[13] = biological target: T12, AXL (Homo sapiens, UniProt P30530); assay: NanoBRET K192; assay type: cell-based; conditions: HEK293
T12 construct: host or cells: HEK293
Protocol: as §1, §2, §3, §4

[14] = biological target: T13, DYRK1B (Homo sapiens, UniProt Q9Y463); assay: NanoBRET K192; assay type: cell-based; conditions: HEK293
T13 construct: purchased Promega (NanoBRET Target Engagement K192 Kinase Selectivity System)
T13 sequence (Q9Y463 whole entry): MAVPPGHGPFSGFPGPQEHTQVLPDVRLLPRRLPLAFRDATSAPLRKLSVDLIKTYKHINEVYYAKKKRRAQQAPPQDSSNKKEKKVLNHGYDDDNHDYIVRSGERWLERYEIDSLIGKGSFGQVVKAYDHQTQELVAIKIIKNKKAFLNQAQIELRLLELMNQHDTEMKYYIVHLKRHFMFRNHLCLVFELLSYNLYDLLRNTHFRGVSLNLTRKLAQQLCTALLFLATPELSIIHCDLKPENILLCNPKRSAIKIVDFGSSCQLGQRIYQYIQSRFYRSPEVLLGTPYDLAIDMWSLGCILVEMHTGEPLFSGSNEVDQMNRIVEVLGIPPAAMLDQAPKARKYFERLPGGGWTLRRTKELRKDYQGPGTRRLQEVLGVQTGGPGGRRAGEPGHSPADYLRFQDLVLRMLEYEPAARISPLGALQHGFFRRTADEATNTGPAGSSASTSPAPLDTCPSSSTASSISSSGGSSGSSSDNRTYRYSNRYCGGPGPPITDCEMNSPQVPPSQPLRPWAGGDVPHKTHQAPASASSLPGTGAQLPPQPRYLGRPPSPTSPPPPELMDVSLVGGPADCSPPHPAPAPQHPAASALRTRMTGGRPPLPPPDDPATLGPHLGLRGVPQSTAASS
Protocol: as §1, §2, §3, §4

[15] = test system: mouse hepatitis virus (MHV); assay: MHV assay (MHV-nLuc in DBT cells); conditions: Murine coronavirus, read-out: MHV pIC50 (converted)
Protocol: DBT cells were cultured at 37 °C in Dulbecco’s modified Eagle medium (DMEM; Sigma-Aldrich, St. Louis, MO, USA) supplemented with 10% fetal bovine serum (FBS; Avantor, Randor, PA, USA) and penicillin and streptomycin (Sigma-Aldrich, St. Louis, MO, USA). DBT cells were plated in 96-well plates to be 80% confluent at the start of the assay. Test compounds or positive control EIDD-1931 were diluted to 15 μM in DMEM. Serial 4-fold dilutions were made in DMEM, providing a concentration range of 15–0.22 μM. Media were aspirated from the DBT cells, and 100 μL of the diluted test compounds was added to the cells for 1 h at 37 °C. After 1 h, MHV-nLuc5 was added at an MOI of 0.1 in 50 μL of DMEM so that the final concentration of the first dilution of the compound was 10 μM (T = 0). After 10 h, the media were aspirated, and the cells were washed with PBS and lysed with passive lysis 5X buffer (Promega, Madison, WI, USA) for 20 min at room temperature. Relative light units (RLUs) were measured using a luminometer (Promega; GloMax, Madison, WI, USA). Triplicate data were analyzed in GraphPad Prism version 9.4.1 for macOS to generate IC50 values.

CCC(=O)Nc1cc(Nc2cc(NC3CC3)n3ncc(C#N)c3n2)c(F)cc1N1CCC[C@H](NC)C1 [Compound 2, (S)-N-(5-((3-cyano-7-(cyclopropylamino)pyrazolo[1,5-a]pyrimidin-5-yl)amino)-4-fluoro-2-(3-(methylamino)piperidin-1-yl)phenyl)propionamide]
CLint scaled at 1 μM [1]: 180 mL/min/kg | receptor occupancy at 10 µM [2]: 5.5% | receptor occupancy at 10 µM [3]: 4.5% | receptor occupancy at 10 µM [4]: 14.2% | receptor occupancy at 10 µM [5]: 7.3% | receptor occupancy at 10 µM [6]: 39.9% | receptor occupancy at 10 µM [7]: 4.6% | receptor occupancy at 10 µM [8]: -2.4% | receptor occupancy at 10 µM [9]: -9.3% | receptor occupancy at 10 µM [10]: -0.5% | receptor occupancy at 10 µM [11]: 5.3% | receptor occupancy at 10 µM [12]: 31.4% | receptor occupancy at 10 µM [13]: -9.2% | receptor occupancy at 10 µM [14]: 38.3% | IC50 [15]: 158 nM
